Key:
[1] = target: Dual specificity tyrosine-phosphorylation-regulated kinase 1B (Homo sapiens) (UniProt Q9Y463); test: Inhibition of N-terminal GST-fused full length human DYRK1B (1 to 629 residues) expressed in baculovirus expression system using DYRKtide-F as substrate at 1 uM in presence of ATP by Mobility shift assay
[2] = target: Serine/threonine-protein kinase 3 (Homo sapiens) (UniProt Q13188); test: Inhibition of N-terminal GST-fused full length human MST2 (1 to 491 residues) expressed in baculovirus expression system using IRS1 as substrate at 1 uM in presence of ATP by Mobility shift assay
[3] = target: Tyrosine-protein kinase Fyn (Homo sapiens) (UniProt P06241); test: Inhibition of human FYN at 1 uM by mobility shift assay relative to control
[4] = target: Calcium/calmodulin-dependent protein kinase type II subunit beta (Homo sapiens) (UniProt Q13554); test: Inhibition of N-terminal GST-tagged full length human CAMK2b (1 to 503 residues) expressed in baculovirus-infected Sf21 cells using GS peptide as substrate at 1 uM in presence of ATP by Mobility shift assay
[5] = target: MAP kinase-interacting serine/threonine-protein kinase 1 (Homo sapiens) (UniProt Q9BUB5); test: Inhibition of N-terminal GST-fused full length human MNK1 (1 to 424 residues) expressed in baculovirus expression system using RS peptide as substrate at 1 uM in presence of ATP by Mobility shift assay
[6] = target: Serine/threonine-protein kinase haspin (Homo sapiens) (UniProt Q8TF76); test: Inhibition of N-terminal GST-fused full length human Haspin (1 to 798 residues) expressed in baculovirus expression system using Histone H3 peptide as substrate at 1 uM in presence of ATP by Mobility shift assay
[7] = Inhibition of N-terminal GST-fused full length human MGC42105 (1 to 436 residues) expressed in baculovirus expression system using CHKtide as substrate at 1 uM in presence of ATP by Mobility shift assay; settings: condition cancer
[8] = target: Death-associated protein kinase 1 (Homo sapiens) (UniProt P53355); test: Inhibition of N-terminal GST-fused human DAPK1 catalytic domain (1 to 289 residues) expressed in baculovirus expression system using DAPK1tide as substrate at 1 uM in presence of ATP by Mobility shift assay
[9] = target: Serine/threonine-protein kinase 26 (Homo sapiens) (UniProt Q9P289); test: Inhibition of N-terminal GST-fused full length human MST4 (1 to 416 residues) expressed in baculovirus expression system using Moesin-derived peptide as substrate at 1 uM in presence of ATP by Mobility shift assay
[10] = target: Maternal embryonic leucine zipper kinase (Homo sapiens) (UniProt Q14680); test: Inhibition of N-terminal GST-fused truncated human MELK (1 to 493 residues) expressed in Escherichia coli expression system using GS peptide as substrate at 1 uM in presence of ATP by Mobility shift assay
[11] = target: CDC7/DBF4 (Cell division cycle 7-related protein kinase/Activator of S phase kinase) (Homo sapiens) (UniProt Q9UBU7+O00311); test: Inhibition of N-terminal GST-tagged full length human CDC7 (1 to 574 residues)/N-terminal GST-tagged ASK (1 to 674 residues) expressed in baculovirus-infected Sf21 cells using MCM2 peptide as substrate at 1 uM in presence of ATP by Mobility shift assay
[12] = target: High affinity nerve growth factor receptor (Homo sapiens) (UniProt P04629); test: Inhibition of N-terminal GST-tagged human TRKA cytoplasmic domain (436 to 790 residues) expressed in baculovirus-infected Sf21 cells using CSKtide as substrate at 1 uM in presence of ATP by Mobility shift assay
[13] = target: Serine/threonine-protein kinase SIK2 (Homo sapiens) (UniProt Q9H0K1); test: Inhibition of N-terminal GST-fused full length human QIK (1 to 926 residues) expressed in baculovirus expression system using AMARA peptide as substrate at 1 uM in presence of ATP by Mobility shift assay
[14] = target: Vascular endothelial growth factor receptor 2 (Homo sapiens) (UniProt P35968); test: Inhibition of N-terminal GST-tagged human KDR cytoplasmic domain (790 to 1356 residues) expressed in baculovirus-infected Sf21 cells using CSKtide as substrate at 1 uM in presence of ATP by Mobility shift assay
[15] = target: Cyclin-dependent kinase 5/CDK5 activator 1 (Homo sapiens) (UniProt Q00535+Q15078); test: Inhibition of N-terminal GST-tagged full length human CDK5 (1 to 292 residues)/N-terminal GST-tagged human p25 (99 to 307 residues) expressed in baculovirus-infected Sf21 cells using Modified Histone H1 as substrate at 1 uM in presence of ATP by Mobility shift assay
[16] = target: Serine/threonine-protein kinase MRCK beta (Homo sapiens) (UniProt Q9Y5S2); test: Inhibition of N-terminal GST-fused truncated human MRCKbeta (1 to 473 residues) expressed in baculovirus expression system using DAPK1tide as substrate at 1 uM in presence of ATP by Mobility shift assay
[17] = target: Phosphorylase b kinase gamma catalytic chain, liver/testis isoform (Homo sapiens) (UniProt P15735); test: Inhibition of N-terminal GST-fused full length human PHKG2 (1 to 406 residues) expressed in baculovirus expression system using GS peptide as substrate at 1 uM in presence of ATP by Mobility shift assay
[18] = target: Mitogen-activated protein kinase 1 (Homo sapiens) (UniProt P28482); test: Inhibition of N-terminal GST-fused full length human ERK2 (1 to 360 residues) expressed in Escherichia coli expression system using Modified Erktide as substrate at 1 uM in presence of ATP by Mobility shift assay
[19] = target: cAMP-dependent protein kinase catalytic subunit PRKX (Homo sapiens) (UniProt P51817); test: Inhibition of N-terminal GST-fused full length human PRKX (1 to 358 residues) expressed in baculovirus expression system using Kemptide as substrate at 1 uM in presence of ATP by Mobility shift assay
[20] = target: Ephrin type-A receptor 7 (Homo sapiens) (UniProt Q15375); test: Inhibition of N-terminal GST-fused human EPHA7 cytoplasmic domain (595 to 998 residues) expressed in baculovirus-infected Sf21 cells using Blk/Lyntide as substrate at 1 uM in presence of ATP by Mobility shift assay
[21] = target: Cyclin-dependent kinase 1/cyclin B1 (Homo sapiens) (UniProt P06493+P14635); test: Inhibition of N-terminal GST-fused full length human CDC2 (1 to 297 residues)/N-terminal GST fused human CyclinB1 (1 to 433 residues) expressed in baculovirus-infected Sf21 cells using Modified Histone H1 as substrate at 1 uM in presence of ATP by Mobility shift assay
[22] = target: Serine/threonine-protein kinase DCLK2 (Homo sapiens) (UniProt Q8N568); test: Inhibition of N-terminal GST-fused truncated human DCAMKL2 (1 to 691 residues) expressed in baculovirus expression system using GS peptide as substrate at 1 uM in presence of ATP by Mobility shift assay

Work on `Cc1cc(C)c(CNC(=O)c2cc(Br)c3c(c2C)O[C@@](C)([C@H]2CC[C@H](N(C)C)CC2)O3)c(=O)[nH]1` yielded an inhibition [1] of 2.7%, an inhibition [2] of -2.1% and an inhibition [3] of 2.6%. It also gave an inhibition [4] of -0.3%, an inhibition [5] of -0.2% and an inhibition [6] of 6.5%. The inhibition at 1 µM [7] was -1.7%, the inhibition [8] was 3.4% and the inhibition [9] was -0.1%. For the same compound, the inhibition [10] was 2.9%, the inhibition [11] was -5.5% and the inhibition [12] was -5.1%. For the same compound, the inhibition [13] was -0.5%, the inhibition [14] was -1.1% and the inhibition [15] was 5.9%. For the same compound, the inhibition [16] was -1%, the inhibition [17] was 0.7% and the inhibition [18] was -6.6%. It also gave an inhibition [19] of -0.6%, an inhibition [20] of -3.3% and an inhibition [21] of 1.8%. The inhibition [22] was -2.7%.
Work on `Cc1cc(C)c(CNC(=O)c2cc(Cl)c3c(c2C)O[C@@](C)([C@H]2CC[C@H](N(C)C)CC2)O3)c(=O)[nH]1` [VALEMETOSTAT] yielded an inhibition [1] of -9.8%, an inhibition [2] of -1.4% and an inhibition [3] of 5.1%. The inhibition [4] was -1.4%, the inhibition [5] was 0.2% and the inhibition [6] was 12.2%. It also gave an inhibition at 1 µM [7] of -0.3%, an inhibition [8] of 14.9% and an inhibition [9] of 0.8%. The inhibition [10] was 1.3%, the inhibition [11] was -6.7% and the inhibition [12] was -5.7%. For the same compound, the inhibition [13] was -1.9%, the inhibition [14] was -3% and the inhibition [15] was -2.4%. For the same compound, the inhibition [16] was -1.3%, the inhibition [17] was -2% and the inhibition [18] was -8.8%. The inhibition [19] was -1.9%, the inhibition [20] was -1.9% and the inhibition [21] was 8.7%. For the same compound, the inhibition [22] was -5.4%.
